Experimental data reported in US8563729B2, “Thienopyridone derivatives as AMP-activated protein kinase (AMPK) activators” (Merck Patent GmbH, priority 2008, dated 2013).

Columns and labels:
H-2 Kb cells = assay: Glucose uptake in H-2 Kb cells (in vitro cellular test); format: cell-based, mouse; conditions: H-2 Kb cells differentiated in muscle, 4 hours incubation, 2-deoxy-D-[1,2 3H] glucose uptake 10 min
Method: Glucose Uptake in H-2 Kb Cells (In Vitro Cellular Test)
The following cellular test allows the determination of the effect of AMPK activators such as compounds of formula (I) onto glucose uptake in a muscle cellular model.
H-1-2 Kb cells derived from heterozygous H-2 Kb tsA58 transgenic mouse were grown in 24-well in plates coated with matrigel and were cultured at 33° C. for 4 days under permissive conditions, as described previously by Fryer et al. (Diabetes 49 (12): 1978, 2000).
For differentiation in muscle, cells were switched to non-permissive culture conditions (37° C. in the absence of interferon-γ). After 3 days, cells were incubated for 4 hours in DMEM 1 g/l glucose culture medium containing different concentrations of the tested molecules. Then glucose uptake was measured by incubating the cells for 10 min with radiolabelled 2-deoxy-D-[1,2 ^3H] glucose. Glucose uptake was terminated by rapidly washing the plates 2 times with ice-cold NaCl 0.9%. The cells were then solubilized in 0.1N NaOH for 30 min. Radioactivity was determined by liquid scintillation counting.
(§1) N°: Number of the molecule
Activity (table III): Concentration of compound (I) for a glucose uptake equal or higher to glucose uptake induced by insulin (170 nM)
^++ or **concentration of compound (I) ≦10 micro Molar
^+ or *concentration of compound (I) >10 micro Molar

[1] = biological target: T1, AMPK protein (recombinant α1β1γ2) (Homo sapiens, UniProt Q13131+Q9Y478); assay: AMPK enzymatic activity (Delfia, AMARA peptide substrate); format: biochemical; conditions: compound 30 μM vs AMP 30 μM; 125 μM ATP; ratio 90% or higher = direct activator
T1 construct: made in house; host or cells: E. coli
T1 sequence (Q13131 whole entry): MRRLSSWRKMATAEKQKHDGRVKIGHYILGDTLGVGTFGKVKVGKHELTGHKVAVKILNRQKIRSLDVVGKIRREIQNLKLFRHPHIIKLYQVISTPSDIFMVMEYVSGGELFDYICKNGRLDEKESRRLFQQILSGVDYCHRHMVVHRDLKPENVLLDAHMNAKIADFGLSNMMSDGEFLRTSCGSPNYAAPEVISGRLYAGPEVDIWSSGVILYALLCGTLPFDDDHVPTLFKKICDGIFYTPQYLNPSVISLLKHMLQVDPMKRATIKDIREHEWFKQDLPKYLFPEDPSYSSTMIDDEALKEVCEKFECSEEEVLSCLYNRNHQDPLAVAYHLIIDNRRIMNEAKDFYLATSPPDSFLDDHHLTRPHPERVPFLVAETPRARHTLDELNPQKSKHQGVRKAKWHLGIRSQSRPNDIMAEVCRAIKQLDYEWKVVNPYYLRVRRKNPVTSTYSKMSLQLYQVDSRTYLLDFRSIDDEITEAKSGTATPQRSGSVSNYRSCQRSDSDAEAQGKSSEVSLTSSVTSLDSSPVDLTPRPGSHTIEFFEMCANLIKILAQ
T1 sequence (Q9Y478 whole entry): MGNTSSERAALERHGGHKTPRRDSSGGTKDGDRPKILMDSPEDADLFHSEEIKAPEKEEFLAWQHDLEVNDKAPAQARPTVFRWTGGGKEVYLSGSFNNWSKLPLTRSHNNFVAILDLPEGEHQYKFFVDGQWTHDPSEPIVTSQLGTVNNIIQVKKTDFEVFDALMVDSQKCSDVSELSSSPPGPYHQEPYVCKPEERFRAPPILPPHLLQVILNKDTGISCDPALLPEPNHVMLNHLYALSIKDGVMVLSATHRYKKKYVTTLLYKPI
T1 sequence (Q9UGJ0 whole entry partner): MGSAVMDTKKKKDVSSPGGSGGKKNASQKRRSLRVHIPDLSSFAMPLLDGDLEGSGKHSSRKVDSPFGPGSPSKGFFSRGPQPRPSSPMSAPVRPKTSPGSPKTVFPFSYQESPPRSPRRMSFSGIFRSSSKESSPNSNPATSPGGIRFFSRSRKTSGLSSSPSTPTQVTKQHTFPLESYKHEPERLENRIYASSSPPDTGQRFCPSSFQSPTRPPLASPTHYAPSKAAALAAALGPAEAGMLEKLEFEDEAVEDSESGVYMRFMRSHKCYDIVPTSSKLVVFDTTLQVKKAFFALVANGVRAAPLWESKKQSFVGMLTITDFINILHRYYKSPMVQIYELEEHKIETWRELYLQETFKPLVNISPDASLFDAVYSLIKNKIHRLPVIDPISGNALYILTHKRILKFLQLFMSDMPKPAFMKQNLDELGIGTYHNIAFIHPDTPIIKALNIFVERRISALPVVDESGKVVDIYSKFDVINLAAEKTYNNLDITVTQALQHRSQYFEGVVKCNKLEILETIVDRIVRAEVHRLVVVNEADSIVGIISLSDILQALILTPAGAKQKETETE
Method: The following biological test allows the determination of the efficacy of such compounds of formula (I) onto AMPK protein (recombinant α1β1γ2).
Human recombinant AMPK enzyme was expressed in E. Coli and was reactivated in vitro by LKB1 prior to enzyme activity determination.
AMPK enzyme activities were assayed by using A Delfia technology. AMPK enzyme activities were carried out in microtiter plates (50 mM Hepes buffer, pH 7.4 with 125 μM ATP respectively) in the presence of a synthetic peptide substrate (AMARAASAAALARRR, the “AMARA” peptide) and activators in serial dilutions. Reactions were initiated by the addition of AMPK (50-100 ng). Following mixing, the plates were incubated for 30 min at room temperature. Enzyme activity was assayed by using an anti-phosphoserine antibody to measure the quantity of phosphate incorporated into the AMARAA.
as §1
Activity: Ratio between the % of control (basal activity) of compound of formula (I) at 30 μM and the % of control (basal activity) of AMP (natural substrate) at 30 μM.
Compounds of formula (I) in the table II are considered as direct activator of AMPK if the ratio is 90% or higher.

activity: Ratio between the % of control (basal activity) of compound of formula (I) at 30 μM and the % of control (basal activity) of AMP at 30 μM [1] [%]	SMILES	Activity (table III): Concentration of compound (I) for a glucose uptake equal or higher to glucose uptake induced by insulin (170 nM) (H-2 Kb cells)
99	O=c1[nH]c2sc(Cl)c(-c3ccccc3)c2c(O)c1-c1cccc(C(F)(F)F)c1 [Compound 143]	* (^+ or *concentration of compound (I) >10 micro Molar)
147	O=c1[nH]c2sc(Cl)c(-c3ccccc3)c2c(O)c1-c1ccc(C(F)(F)F)cc1 [Compound 171]	+ (^+ or *concentration of compound (I) >10 micro Molar)
305	O=c1[nH]c2sc(Cl)c(-c3cc(F)ccc3O)c2c(O)c1-c1ccccc1 [Compound 108]	* (^+ or *concentration of compound (I) >10 micro Molar)
122	CCOc1cccc(-c2c(Cl)sc3[nH]c(=O)c(-c4ccccc4)c(O)c23)c1 [Compound 127]	* (^+ or *concentration of compound (I) >10 micro Molar)
181	Cc1ccc(-c2c(Cl)sc3[nH]c(=O)c(-c4ccccc4)c(O)c23)c(O)c1F [Compound 210]	++ (^++ or **concentration of compound (I) ≦10 micro Molar)
103	O=c1[nH]c2sc(Cl)c(-c3ccc(F)c(F)c3)c2c(O)c1-c1ccccc1 [Compound 100]	** (^++ or **concentration of compound (I) ≦10 micro Molar)
138	O=c1[nH]c2sc(Cl)c(-c3ccc(Cl)cc3)c2c(O)c1-c1ccccc1 [Compound 178]	++ (^++ or **concentration of compound (I) ≦10 micro Molar)
238	O=c1[nH]c2sc(Cl)c(-c3ccccc3)c2c(O)c1-c1ccccc1F [Compound 165]	+ (^+ or *concentration of compound (I) >10 micro Molar)
131	O=c1[nH]c2sc(Cl)c(-c3ccc(F)c(F)c3O)c2c(O)c1-c1ccccc1 [Compound 208]	+ (^+ or *concentration of compound (I) >10 micro Molar)
181	COc1cccc(-c2c(Cl)sc3[nH]c(=O)c(-c4ccccc4)c(O)c23)c1 [Compound 128]	* (^+ or *concentration of compound (I) >10 micro Molar)
98	O=c1[nH]c2sc(Cl)c(-c3cccc(F)c3)c2c(O)c1-c1ccccc1 [Compound 126]	* (^+ or *concentration of compound (I) >10 micro Molar)
147	COc1ccc(-c2c(O)c3c(-c4ccccc4)c(Cl)sc3[nH]c2=O)cc1 [Compound 157]	** (^++ or **concentration of compound (I) ≦10 micro Molar)
114	COc1ccc(-c2c(Cl)sc3[nH]c(=O)c(-c4ccccc4)c(O)c23)cc1 [Compound 139]	** (^++ or **concentration of compound (I) ≦10 micro Molar)
234	COc1ccc(-c2c(O)c3c(-c4ccccc4)c(Cl)sc3[nH]c2=O)cc1OC [Compound 177]	++ (^++ or **concentration of compound (I) ≦10 micro Molar)
245	Cc1cccc(-c2c(O)c3c(-c4ccccc4)c(Cl)sc3[nH]c2=O)c1 [Compound 176]	++ (^++ or **concentration of compound (I) ≦10 micro Molar)

The next lines start with the molecule.

SMILES	activity: Ratio between the % of control (basal activity) of compound of formula (I) at 30 μM and the % of control (basal activity) of AMP at 30 μM [1] [%]	Activity (table III): Concentration of compound (I) for a glucose uptake equal or higher to glucose uptake induced by insulin (170 nM) (H-2 Kb cells)
Cc1ccc(-c2c(Cl)sc3[nH]c(=O)c(-c4ccc(F)cc4)c(O)c23)c(O)c1F [Compound 206]	184	+ (^+ or *concentration of compound (I) >10 micro Molar)
Cc1cc(O)c(-c2c(Cl)sc3[nH]c(=O)c(-c4ccccc4)c(O)c23)cc1C [Compound 207]	213	+ (^+ or *concentration of compound (I) >10 micro Molar)
COc1ccc(-c2csc3[nH]c(=O)c(-c4ccccc4)c(O)c23)c(F)c1 [Compound 63]	115	* (^+ or *concentration of compound (I) >10 micro Molar)
Cc1ccc(-c2c(Cl)sc3[nH]c(=O)c(-c4cccnc4)c(O)c23)c(O)c1 [Compound 195]	156	+ (^+ or *concentration of compound (I) >10 micro Molar)
Cc1ccc(-c2csc3[nH]c(=O)c(-c4ccccc4)c(O)c23)c(O)c1 [Compound 83, 4-hydroxy-3-(2-hydroxy-4-methylphenyl)-5-phenyl-6,7-dihydro-thieno[2,3-b]pyridin-6-one]	403	* (^+ or *concentration of compound (I) >10 micro Molar)
N#Cc1cccc(-c2c(O)c3c(-c4ccc(F)cc4)c(Cl)sc3[nH]c2=O)c1 [Compound 131]	331	* (^+ or *concentration of compound (I) >10 micro Molar)
Cc1ccc(-c2c(Cl)sc3[nH]c(=O)c(-c4ccccc4)c(O)c23)c(O)c1C [Compound 202]	305	++ (^++ or **concentration of compound (I) ≦10 micro Molar)
O=c1[nH]c2scc(-c3ccc(F)cc3)c2c(O)c1-c1ccccc1 [Compound 27]	114	* (^+ or *concentration of compound (I) >10 micro Molar)
O=c1[nH]c2sc(Cl)c(-c3ccc(F)cc3O)c2c(O)c1-c1ccc(F)cc1 [Compound 213]	349	+ (^+ or *concentration of compound (I) >10 micro Molar)
CN(C)c1ccc(-c2c(O)c3c(-c4ccccc4)csc3[nH]c2=O)cc1 [Compound 22]	121	** (^++ or **concentration of compound (I) ≦10 micro Molar)
COc1ccc(-c2c(Cl)sc3[nH]c(=O)c(-c4cccc(C#N)c4)c(O)c23)cc1 [Compound 129]	102	** (^++ or **concentration of compound (I) ≦10 micro Molar)
